From EP3575287A1, “INHIBITORS OF N-ACYLPHOSPHATIDYLETHANOLAMINE PHOSPHOLIPASE D (NAPE-PLD)” (Universiteit Leiden, priority 2018, dated 2019)

The compounds below were run against T1, human NAPE-PLD (Homo sapiens, UniProt Q6IQ20) (assay: In vitro NAPE-PLD activity assay). Conditions: membrane protein fraction of HEK293T cells overexpressing human NAPE-PLD; substrate PED6 1 µM; 30 minutes preincubation at 37 °C.
T1 construct: Full length human cDNA NAPE-PLD was obtained from Natsuo Ueda; made in house; host or cells: HEK293T cells, transient transfection (pcDNA3.1); membrane fraction used
T1 sequence (Q6IQ20 whole entry): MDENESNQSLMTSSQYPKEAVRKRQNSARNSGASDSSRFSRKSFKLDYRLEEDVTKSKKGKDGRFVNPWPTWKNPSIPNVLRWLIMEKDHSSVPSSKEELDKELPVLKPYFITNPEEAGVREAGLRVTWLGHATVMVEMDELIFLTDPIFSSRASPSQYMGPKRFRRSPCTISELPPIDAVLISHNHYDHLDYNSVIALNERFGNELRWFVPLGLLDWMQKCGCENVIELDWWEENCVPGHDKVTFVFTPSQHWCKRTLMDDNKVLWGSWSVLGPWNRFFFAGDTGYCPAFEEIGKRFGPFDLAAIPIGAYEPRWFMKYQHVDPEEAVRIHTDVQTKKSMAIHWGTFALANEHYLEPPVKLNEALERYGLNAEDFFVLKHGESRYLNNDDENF
Type: biochemical
Experimental: Full length human cDNA NAPE-PLD was obtained from Natsuo Ueda^1 and cloned into mammalian expression vector pcDNA3.1, containing a C-terminal Flag-tag and genes for ampicillin and neomycin resistance. All plasmids were grown in XL-10 Z-competent cells and prepped (Maxi Prep, Qiagen). Sequence analysis for the confirmation of the sequences was performed at the Leiden Genome Technology Centre.
HEK293T were cultured at 37 °C and 7% CO2 in DMEM (Sigma Aldrich, D6546) with glutamax, penicillin (100 µg/ml), streptomycin (100 µg/ml) and 10% New Born Calf Serum iron supplemented (Hyclone SH30072.03). Cells were passaged twice a week to appropriate confluence.
24 hours before transfection 10^7 cells are seeded on a 15 cm dish. Two hours before transfection medium is refreshed, low volume. Transfection is performed with PEI in a ratio of 3:1 with human NAPE-PLD or Mock pcDNA3.1 Neo, 20 µg per dish. Medium is refreshed after 24 hours and cells are harvested after 72 hours.
Cell pellets are re-suspended in lysis buffer: 20 mM Hepes, 2 mM DTT, 0.25 M sucrose, 1 mM MgCl2, 2.5 U/ml benzonase and incubated 30 minutes on ice. The cytosolic fraction (supernatant) is separated from the membranes by ultra-centrifugation (32000 rpm for 30 minutes 100,000g). The pellet is resuspended in storage buffer: 20 mM Hepes, 2 mM DTT (membrane fraction). All samples are stored at -80°C. Enzyme concentrations are determined using a Bradford assay.
The NAPE-PLD activity assay is based on a previously reported method with small alterations.^2 The membrane protein fraction from transient overexpression of human NAPE-PLD in HEK293T cells was diluted to 0.4 mg/ml in assay buffer: 50 mM Tris-HCl (pH 7.5), 0.02% Triton X-100, 150 mM NaCl. The substrate PED6 (Invitrogen) 1 mM stock was consecutively diluted in DMSO (10x) and in assay buffer (10x) to make a 10 µM working solution. […] The assay is performed in a dark Greiner 96 wells plate, end volume 100 µl. The compound or DMSO is incubated with membrane protein lysate (final concentration 0.04 mg/ml) for 30 minutes at 37 °C. […] Mock lysate with DMSO is used for background substraction. IC50 curves are generated used Graphpad Prism v6.
An IC50 of 3240 nM was found for O=C(NCC1CC1)c1cc(N2CCOCC2)nc(N2CCN(C(=O)OCc3ccccc3)C(c3ccccc3)C2)n1 (centres unmarked) [Example 74, benzyl 4-(4-((cyclopropylmethyl)carbamoyl)-6-morpholinopyrimidin-2-yl)-2-phenylpiperazine-1-carboxylate] in this work. An IC50 of 9120 nM was found for CN(Cc1ccccc1)c1nc(C(=O)NCC2CC2)cc(N2CCOCC2)n1 [Example 48, 2-(benzyl(methyl)amino)-N-(cyclopropylmethyl)-6-morpholinopyrimidine-4-carboxamide] in this work. An IC50 of 11200 nM was found for CN(CCc1ccccc1)c1nc(Oc2ccccc2)cc(C(=O)NCC2CC2)n1 [Example 87, N-(cyclopropylmethyl)-2-(methyl(phenethyl)amino)-6-phenoxypyrimidine-4-carboxamide] in this work. An IC50 of 1820 nM was found for Cc1ccc(CCN(C)c2nc(C(=O)NCC3CC3)cc(N3CCOCC3)n2)cc1 [Example 69, N-(cyclopropylmethyl)-2-(methyl(4-methylphenethyl)amino)-6-morpholinopyrimidine-4-carboxamide] in this work. An IC50 of 110 nM was found for O=C(NCC1CC1)c1cc(N2CC[C@@H](O)C2)nc(N2CCC[C@@H](c3ccccc3)C2)n1 [Example 43, N-(cyclopropylmethyl)-6-((R)-3-hydroxypyrrolidin-1-yl)-2-((S)-3-phenylpiperidin-1-yl)pyrimidine-4-carboxamide] in this work. An IC50 of 209 nM was found for O=C(NCC1CC1)c1cc(N2CCOCC2)nc(N2CCC[C@@H](c3ccccc3)C2)n1 [Example 46, (S)-N-(cyclopropylmethyl)-6-morpholino-2-(3-phenylpiperidin-1-yl)pyrimidine-4-carboxamide] in this work. An IC50 of 3470 nM was found for COc1ccc(CCN(C)c2nc(C(=O)NCC3CC3)cc(N3CCOCC3)n2)cc1 [Example 64, N-(cyclopropylmethyl)-2-((4-methoxyphenethyl)(methyl)amino)-6-morpholinopyrimidine-4-carboxamide] in this work. An IC50 of 891 nM was found for Cc1ccccc1CCN(C)c1nc(C(=O)NCC2CC2)cc(N2CCOCC2)n1 [Example 78, N-(cyclopropylmethyl)-2-(methyl(2-methylphenethyl)amino)-6-morpholinopyrimidine-4-carboxamide] in this work. An IC50 of 6170 nM was found for CN(CCc1ccc(C(F)(F)F)cc1)c1nc(C(=O)NCC2CC2)cc(N2CCOCC2)n1 [Example 56, N-(cyclopropylmethyl)-2-(methyl(4-(trifluoromethyl)phenethyl)amino)-6-morpholino-pyrimidine-4-carboxamide] in this work. An IC50 of 389 nM was found for CN(CCc1ccccc1)c1nc(C(=O)NCC2CC2)cc(N2CCCC(F)(F)C2)n1 [Example 86, N-(cyclopropylmethyl)-6-(3,3-difluoropiperidin-1-yl)-2-(methyl(phenethyl)amino)pyrimidine-4-carboxamide] in this work. An IC50 of 4070 nM was found for CN(CCc1ccccc1)c1cc(C(=O)NCC2CC2)nc(N2CCOCC2)n1 [Example 55, N-(cyclopropylmethyl)-6-(methyl(phenethyl)amino)-2-morpholinopyrimidine-4-carboxamide] in this work. An IC50 of 5010 nM was found for CN(CCc1ccccc1)c1nc(C(=O)NCCO)cc(N2CCOCC2)n1 [Example 36, N-(2-hydroxyethyl)-2-(methyl(phenethyl)amino)-6-morpholinopyrimidine-4-carboxamide] in this work. An IC50 of 708 nM was found for COC1CCN(c2cc(C(=O)NCC3CC3)nc(N(C)CCc3ccccc3)n2)C1 (centres unmarked) [Example 34, N-(cyclopropylmethyl)-6-(3-methoxypyrrolidin-1-yl)-2-(methyl(phenethyl)amino)pyrimidine-4-carboxamide] in this work. An IC50 of 1410 nM was found for CN(CCc1ccccc1)c1nc(C(=O)NCC2CC2)cc(N2CCC(c3ccccc3)C2)n1 (centres unmarked) [Example 29, N-(cyclopropylmethyl)-2-(methyl(phenethyl)amino)-6-(3-phenylpyrrolidin-1-yl)pyrimidine-4-carboxamide] in this work. An IC50 of 380 nM was found for O=C(NCC1CC1)c1cc(N2CCOCC2)nc(N2CCCC(c3ccccc3)C2)n1 (centres unmarked) [Example 52, N-(cyclopropylmethyl)-6-morphol ino-2-(3-phenylpiperidin-1-yl)pyrimidine-4-carboxamide] in this work. An IC50 of 288 nM was found for CN(C)c1cc(C(=O)NCC2CC2)nc(N(C)CCc2ccccc2)n1 [Example 76, N-(cyclopropylmethyl)-6-(dimethylamino)-2-(methyl(phenethyl)amino)pyrimidine-4-carboxamide] in this work. An IC50 of 490 nM was found for CN(CCc1ccccc1-c1ccccc1)c1nc(C(=O)NCC2CC2)cc(N2CCOCC2)n1 [Example 71, 2-((2-([1,1'-biphenyl]-2-yl)ethyl)(methyl)amino)-N-(cyclopropylmethyl)-6-morpholino-pyrimidine-4-carboxamide] in this work. An IC50 of 5250 nM was found for CN(CCc1ccccc1)c1nc(Oc2cccnc2)cc(C(=O)NCC2CC2)n1 [Example 1, N-(cyclopropylmethyl)-2-(methyl(phenethyl)amino)-6-(pyridin-3-yloxy)pyrimidine-4-carboxamide] in this work. An IC50 of 3020 nM was found for CN(CCc1ccc(Oc2ccccc2)cc1)c1nc(C(=O)NCC2CC2)cc(N2CCOCC2)n1 [Example 53, N-(cyclopropylmethyl)-2-(methyl(4-phenoxyphenethyl)amino)-6-morpholinopyrimidine-4-carboxamide] in this work. An IC50 of 501 nM was found for O=C(NCC1CC1)c1cc(N2CCOCC2)nc(N(CCc2ccccc2)c2ccccc2)n1 [Example 77, N-(cyclopropylmethyl)-6-morpholino-2-(phenethyl(phenyl)amino)pyrimidine-4-carboxamide] in this work. An IC50 of 1070 nM was found for CN(CCc1cccs1)c1nc(C(=O)NCC2CC2)cc(N2CCOCC2)n1 [Example 22, N-(cyclopropylmethyl)-2-(methyl(2-(thiophen-2-yl)ethyl)amino)-6-morpholinopyrimidine-4-carboxamide] in this work. An IC50 of 2240 nM was found for O=C(NCC1CC1)c1cc(N2CCOCC2)nc(N2CCc3ccccc3C2)n1 [Example 63, N-(cyclopropylmethyl)-2-(3,4-dihydroisoquinolin-2(1H)-yl)-6-morphol inopyrimidine-4-carboxamide] in this work. An IC50 of 1170 nM was found for CN(CCc1ccccc1)c1nc(C(=O)NCC2CC2)cc(N2CCC(F)(F)C2)n1 [Example 31, N-(cyclopropylmethyl)-6-(3,3-difluoropyrrolidin-1-yl)-2-(methyl(phenethyl)amino)pyrimidine-4-carboxamide] in this work. An IC50 of 324 nM was found for O=C(NCC1CC1)c1cc(N2CC[C@@H](O)C2)nc(N2CCC[C@H](c3ccccc3)C2)n1 [Example 42, N-(cyclopropylmethyl)-6-((R)-3-hydroxypyrrolidin-1-yl)-2-((R)-3-phenylpiperidin-1-yl)pyrimidine-4-carboxamide] in this work. An IC50 of 501 nM was found for CCN(CC)c1cc(C(=O)NCC2CC2)nc(N(C)CCc2ccccc2)n1 [Example 20, N-(cyclopropylmethyl)-6-(diethylamino)-2-(methyl(phenethyl)amino)pyrimidine-4-carboxamide] in this work. An IC50 of 603 nM was found for CN(CCc1ccccc1Oc1ccccc1)c1nc(C(=O)NCC2CC2)cc(N2CCOCC2)n1 [Example 67, N-(cyclopropylmethyl)-2-(methyl(2-phenoxyphenethyl)amino)-6-morpholinopyrimidine-4-carboxamide] in this work. An IC50 of 380 nM was found for O=C(NCC1CC1)c1cc(N2CCOCC2)nc(N2CCCC2Cc2ccccc2)n1 (centres unmarked) [Example 59, 2-(2-benzylpyrrolidin-1-yl)-N-(cyclopropylmethyl)-6-morpholinopyrimidine-4-carboxamide] in this work. An IC50 of 155 nM was found for CN(CCc1ccccc1)c1cc(C(=O)NCC2CC2)nc(N(C)CCc2ccccc2)n1 [Example 27, N-(cyclopropylmethyl)-2,6-bis(methyl(phenethyl)amino)pyrimidine-4-carboxamide] in this work. An IC50 of 10700 nM was found for CN(CCc1cccnc1)c1nc(C(=O)NCC2CC2)cc(N2CCOCC2)n1 [Example 80, N-(cyclopropylmethyl)-2-(methyl(2-(pyridin-3-yl)ethyl)amino)-6-morpholinopyrimidine-4-carboxamide] in this work. An IC50 of 234 nM was found for CN(CCc1ccccc1)c1nc(C(=O)NCC2CC2)cc(N2CC[C@H](O)C2)n1 [Example 39, (S)-N-(cyclopropylmethyl)-6-(3-hydroxypyrrolidin-1-yl)-2-(methyl(phenethyl)amino)pyrimidine-4-carboxamide] in this work. An IC50 of 1100 nM was found for CN(Cc1ccccc1)c1cc(C(=O)NCC2CC2)nc(N(C)CCc2ccccc2)n1 [Example 28, N-(cyclopropylmethyl)-2-(methyl(phenethyl)amino)-6-(benzyl(methyl)amino)pyrimidine-4-carboxamide] in this work. An IC50 of 2750 nM was found for O=C(NCC1CC1)c1cc(N2CCOCC2)nc(NCCc2ccccc2)n1 [Example 47, N-(cyclopropylmethyl)-6-morpholino-2-(phenethylamino)pyrimidine-4-carboxamide] in this work.
